Tests used:
[1] = tested on: malignant MM cells (MM1s and H929); assay: MTT survival assay of malignant MM cells treated with Bortezomib; assay type: cell-based; conditions: Homo sapiens, 48 hours, read-out: IC50, killing of myeloma cells
Description: (§1) Anticancer agents have preferential cytotoxic effects on cancer cells compared to non-malignant cells (such as EPCs). Therefore we tested the effect of BTZ (anti-cancer drug) on the survival of malignant MM cells (MM1s and H929) and on EPCs, in which cells were treated with increasing concentrations of Bortezomib, and the killing effect was evaluated after 48 hours using MTT assay (FIGS. 8A and B). Also EPCs were treated with and without high-dose of BTZ (50 nM) and we measured the in vitro migration of the EPCs towards MM-conditioned media, using a Boyden chamber migration assay, and the number of migrating EPCs was analyzed by flow cytometry (FIG. 8C).

[2] = tested on: EPCs; assay: Boyden chamber migration of agent-treated EPCs towards MM-conditioned media; assay type: cell-based; conditions: for effect on migration of EPCs to tumor: increasing doses, towards MM-conditioned media
Description: as §1
(§2) Prodrugs such as TC and BPA are inert agents that are not supposed to have effect by them selves on cancer or normal cell survival, but when activated using positron emission and neutrons, respectively, these agents become active drugs and kill the cell that they reside in and adjacent cells next to it. We tested the effect of TC and BPA (prodrugs) on the survival of EPCs, in which cells were treated with increasing concentrations of these, and the killing effect was evaluated after 48 hours using MTT assay (FIGS. 9A and 10A). And to confirm the loading of EPCs with TC and BPA, we treated the EPCs with increasing doses of TC and BPA, digested the cells with nitric acid, and used ICP-MS to detect the level of Titanium and boron in the EPCs, respectively (FIGS. 9B and 10B). Also EPCs were treated with and without increasing doses of TC and BPA and we measured the in vitro migration of the EPCs towards MM-conditioned media, using a Boyden chamber migration assay, and the number of migrating EPCs was analyzed by flow cytometry (FIGS. 9C and 10C).
(§3) These agents have no cytotoxicity effect, to confirm that we tested the effect of LS-542, (as a model of an imaging agent) on survival of EPCs, in which cells were treated with increasing concentrations of these, and the killing effect was evaluated after 48 hours using MTT assay (FIG. 11A). And to confirm the loading of EPCs with LS-542, we treated the EPCs with increasing doses of LS-542, and the amount of labeling was measure by the mean-flurescence intensity of the dye by flow cytometry (FIG. 11B). Also EPCs were treated with and without increasing doses of LS-542 and we measured the in vitro migration of the EPCs towards MM-conditioned media, using a Boyden chamber migration assay, and the number of migrating EPCs was analyzed by flow cytometry (FIG. 11C).

[3] = tested on: EPCs; assay: MTT survival assay of EPCs treated with agent; assay type: cell-based; conditions: 48 hours; for effect on survival of EPCs: increasing concentrations
Description: as §1
as §2, with “And to confirm the loading of EPCs with TC and BPA, we treated the EPCs with increasing doses of TC and BPA, digested the cells with nitric acid, and used ICP-MS to detect the level of Titanium and boron in the EPCs, respectively (FIGS. 9B and 10B).” left out
as §3, with “And to confirm the loading of EPCs with LS-542, we treated the EPCs with increasing doses of LS-542, and the amount of labeling was measure by the mean-flurescence intensity of the dye by flow cytometry (FIG. 11B).” left out

[4] = tested on: EPCs; conditions: calcein-UV and PI, flow cytometry
Description: The effect of Tc on the cell vitality/viability by staining the cells with viability dye (calcein-UV) and propidium iodide (PI) and analyzing by flow cytometry was tested.

| SMILES | IC50 [1] [nM] | effect of loading on migration of EPCs towards cancer cells ([2]; BTZ 50 nM for 2 hrs, MM-conditioned media) | BTZ concentration up to which EPCs are not sensitive (survival) [3] | concentration up to which Tc is not toxic to EPCs [4] | effect on migration of EPCs to tumor [2] | effect on migration of EPCs to conditioned MM media ([2]; same concentration range, up to 150 μM) | effect on survival of EPCs [3] |
| --- | --- | --- | --- | --- | --- | --- | --- |
| CC(C)C[C@H](NC(=O)[C@H](Cc1ccccc1)NC(=O)c1cnccn1)B(O)O [BTZ, Bortezomib] | 5 | did not affect the migration of EPCs | up to 50 nM |  |  |  |  |
| [Cl-].[Cl-].[Ti+4].c1cc[cH-]c1.c1cc[cH-]c1 [Titanocene] |  |  |  | up to 150 μM | no effect | did not affect the migration of EPCs | no effect on the survival |
| N[C@@H](Cc1ccc(B(O)O)cc1)C(=O)O [BPA, 4-Borono-L-phenylalanine] |  |  |  |  | no effect |  | no effect on the survival |
